PMC9181188 (International Journal of Molecular Sciences, 2022)
Converted amounts (≈) assume the structure as drawn. Read-outs that look alike come from different tables or passages of the source.

Key:
[1] = system: S. epidermidis T 5399 848/19; assay: MIC, clinical S. epidermidis strain; format: cell-based; details: Staphylococcus epidermidis, T5399848/19, quinolone-susceptible, 18 h of treatment
[2] = system: S. epidermidis KR 4358/2 840/19; assay: MIC, clinical S. epidermidis strain; format: cell-based; details: Staphylococcus epidermidis, KR4358/2840/19; clinical S. epidermidis, quinolone-susceptible, 18 h of treatment; read-out: MIC KR 4358/2 840/19
[3] = system: S. epidermidis KR 4047 825/19; assay: MIC, clinical S. epidermidis strain; format: cell-based; details: Staphylococcus epidermidis, KR4047825/19, quinolone-resistant, 18 h of treatment
M. tuberculosis H37Rv = assay: MABA (microplate Alamar blue assay) MIC; format: cell-based; details: Mycobacterium tuberculosis, 336 h, read-out: MIC M. tuberculosis H37Rv
[4] = system: standard staphylococci (S. aureus, S. epidermidis); assay: MIC, standard Gram-positive strains as a group; format: cell-based; details: Staphylococcus aureus; range over standard Gram-positive strains; read-out: MIC against standard staphylococci
S. aureus ATCC 29213 = assay: MIC, twofold microdilution, standard strain; format: cell-based; details: Staphylococcus aureus, ATCC29213; 18 h of treatment; read-out: MIC S. aureus ATCC 29213
S. aureus ATCC 6538 = assay: MIC, twofold microdilution, standard strain; format: cell-based; details: Staphylococcus aureus, ATCC6538; 18 h of treatment; read-out: MIC S. aureus ATCC 6538
PC3 cells = assay: MTT assay, PC3; format: cell-based, human; details: for IC50: human metastatic prostate cancer, 72 h, MTT, mean ± SD; for SI PC3: SI = IC50 for normal cell line (HaCaT)/IC50 cancer cell line
SW480 cells = assay: MTT assay, SW480; format: cell-based, human; details: for IC50: Homo sapiens, SW480, 72 h, human primary colon cancer, 72 h, MTT, mean ± SD; for SI SW480: SI = IC50 for normal cell line (HaCaT)/IC50 cancer cell line
[5] = system: S. epidermidis T 5501 851/19; assay: MIC, clinical S. epidermidis strain; format: cell-based; details: Staphylococcus epidermidis, T5501851/19, read-out: MIC T 5501 851/19, quinolone-susceptible, 18 h of treatment
[6] = system: M. tuberculosis Spec. 192 (Sensitive to Tuberculostatics); assay: MABA (microplate Alamar blue assay) MIC; format: cell-based; details: Mycobacterium tuberculosis, 336 h, read-out: MIC M. tuberculosis Spec. 192 (Sensitive to Tuberculostatics)
[7] = system: quinolone-susceptible clinical coagulase-negative staphylococci; assay: MIC, quinolone-susceptible clinical isolates as a group; format: cell-based; details: Staphylococcus epidermidis, five quinolone-susceptible isolates, read-out: MIC against quinolone-susceptible clinical isolates
[8] = system: S. epidermidis ATCC 12228; assay: MIC, twofold microdilution, standard strain; format: cell-based; details: Staphylococcus epidermidis, ATCC12228; 18 h of treatment; read-out: MIC S. epidermidis ATCC 12228
SW620 cells = assay: MTT assay, SW620; format: cell-based, human; details: for IC50: human metastatic colon cancer, 72 h, MTT, mean ± SD; for SI SW620: SI = IC50 for normal cell line (HaCaT)/IC50 cancer cell line
HaCaT cells = assay: MTT assay, HaCaT normal cells; format: cell-based; details: human immortal keratinocyte cell line, 72 h, mean ± SD
S. aureus ATCC 25923 = assay: MIC, twofold microdilution, standard strain; format: cell-based; details: Staphylococcus aureus, ATCC25923; 18 h of treatment; read-out: MIC S. aureus ATCC 25923
[9] = system: S. epidermidis ATCC 35984; assay: MIC, twofold microdilution, standard strain; format: cell-based; details: Staphylococcus epidermidis, ATCC35984; 18 h of treatment; read-out: MIC S. epidermidis ATCC 35984
[10] = system: S. epidermidis KR 4243 829/19; assay: MIC, clinical S. epidermidis strain; format: cell-based; details: Staphylococcus epidermidis, KR4243829/19, quinolone-susceptible, 18 h of treatment
E. coli ATCC 25922 = assay: MIC, twofold microdilution, standard strain; format: cell-based, Escherichia coli; details: for MIC: Escherichia coli, read-out: MIC E. coli ATCC 25922
[11] = system: S. epidermidis T 5253 845/19; assay: MIC, clinical S. epidermidis strain; format: cell-based; details: Staphylococcus epidermidis, T5253845/19, quinolone-resistant, 18 h of treatment
S. aureus NCTC 4163 = assay: MIC, twofold microdilution, standard strain; format: cell-based; details: Staphylococcus aureus, NCTC4163; 18 h of treatment; read-out: MIC S. aureus NCTC 4163
[12] = system: S. epidermidis KR 4313 834/19; assay: MIC, clinical S. epidermidis strain; format: cell-based; details: Staphylococcus epidermidis, KR4313834/19, quinolone-susceptible, 18 h of treatment
P. aeruginosa ATCC 27853 = assay: MIC, twofold microdilution, standard strain; format: cell-based; details: Pseudomonas aeruginosa, ATCC27853; 18 h of treatment; read-out: MIC P. aeruginosa ATCC 27853
S. aureus DNA gyrase = S. aureus DNA gyrase (Staphylococcus aureus, UniProt P0A0K8+P20831); assay: biochemical
Chain of S. aureus DNA gyrase (P20831 whole entry): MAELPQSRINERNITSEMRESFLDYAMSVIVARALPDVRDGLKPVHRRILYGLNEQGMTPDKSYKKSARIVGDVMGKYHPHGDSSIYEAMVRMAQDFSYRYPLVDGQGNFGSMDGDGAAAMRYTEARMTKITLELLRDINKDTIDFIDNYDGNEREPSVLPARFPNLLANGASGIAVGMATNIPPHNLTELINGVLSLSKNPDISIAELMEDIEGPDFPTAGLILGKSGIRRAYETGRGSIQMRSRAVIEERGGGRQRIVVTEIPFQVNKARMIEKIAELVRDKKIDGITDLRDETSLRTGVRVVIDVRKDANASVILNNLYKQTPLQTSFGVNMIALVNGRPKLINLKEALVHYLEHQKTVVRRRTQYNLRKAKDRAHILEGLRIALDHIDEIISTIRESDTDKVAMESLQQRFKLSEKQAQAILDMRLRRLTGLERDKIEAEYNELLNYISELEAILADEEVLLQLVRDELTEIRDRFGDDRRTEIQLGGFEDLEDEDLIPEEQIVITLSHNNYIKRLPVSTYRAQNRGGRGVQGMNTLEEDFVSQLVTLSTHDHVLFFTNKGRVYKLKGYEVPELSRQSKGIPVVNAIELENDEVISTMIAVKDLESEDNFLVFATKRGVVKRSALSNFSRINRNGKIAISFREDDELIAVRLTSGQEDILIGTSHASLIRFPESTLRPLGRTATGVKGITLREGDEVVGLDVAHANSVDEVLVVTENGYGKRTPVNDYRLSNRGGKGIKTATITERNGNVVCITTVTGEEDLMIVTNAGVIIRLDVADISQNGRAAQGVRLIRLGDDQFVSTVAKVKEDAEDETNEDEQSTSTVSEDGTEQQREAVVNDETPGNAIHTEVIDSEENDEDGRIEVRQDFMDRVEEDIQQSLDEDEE
Chain of S. aureus DNA gyrase (P0A0K8 whole entry): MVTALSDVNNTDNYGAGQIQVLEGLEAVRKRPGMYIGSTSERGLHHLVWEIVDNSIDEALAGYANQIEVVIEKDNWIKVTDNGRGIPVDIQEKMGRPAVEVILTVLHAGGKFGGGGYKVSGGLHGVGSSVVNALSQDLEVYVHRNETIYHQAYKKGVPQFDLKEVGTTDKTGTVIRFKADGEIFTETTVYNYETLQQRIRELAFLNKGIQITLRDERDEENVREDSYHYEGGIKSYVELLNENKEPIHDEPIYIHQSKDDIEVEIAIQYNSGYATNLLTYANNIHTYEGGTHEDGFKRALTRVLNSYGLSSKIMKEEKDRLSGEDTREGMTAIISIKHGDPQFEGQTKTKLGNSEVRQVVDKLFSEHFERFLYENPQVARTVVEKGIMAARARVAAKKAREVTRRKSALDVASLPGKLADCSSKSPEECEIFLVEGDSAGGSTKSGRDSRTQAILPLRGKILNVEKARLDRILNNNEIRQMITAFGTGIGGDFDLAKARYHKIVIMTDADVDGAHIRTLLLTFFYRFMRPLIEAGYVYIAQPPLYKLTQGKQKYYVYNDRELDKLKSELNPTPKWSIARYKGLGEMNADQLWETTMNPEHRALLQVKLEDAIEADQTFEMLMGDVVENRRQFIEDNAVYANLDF
Method: The assay was performed using S. aureus DNA Gyrase Supercoiling kit (Inspiralis). […] Samples were vortexed, centrifuged, and 20 µL of the aqueous phase of each sample was loaded onto a 1% agarose gel and left for 30 min prior to electrophoresis to allow diffusion of salt. Electrophoresis was conducted in TAE buffer for 3 h at 50 V. Gels were stained with ethidium bromide and visualized under UV light in a transilluminator (ChemiDoc MP, Bio Rad, Warsaw, Poland).

[13] = system: SW480, SW620, and PC3 cancer cell lines; assay: MTT assay, cancer cell lines as a group; format: cell-based, human; details: 72 h, all three cancer cell lines (SW480, SW620, PC3), read-out: IC50 against all tested cancer cell lines
[14] = biological target: T1, S. aureus topoisomerase IV (Staphylococcus aureus, UniProt P0C1S7+P0C1U9); assay: S. aureus topoisomerase IV decatenation assay; format: biochemical
T1 construct: purchased Inspiralis
T1 sequence (P0C1U9 whole entry): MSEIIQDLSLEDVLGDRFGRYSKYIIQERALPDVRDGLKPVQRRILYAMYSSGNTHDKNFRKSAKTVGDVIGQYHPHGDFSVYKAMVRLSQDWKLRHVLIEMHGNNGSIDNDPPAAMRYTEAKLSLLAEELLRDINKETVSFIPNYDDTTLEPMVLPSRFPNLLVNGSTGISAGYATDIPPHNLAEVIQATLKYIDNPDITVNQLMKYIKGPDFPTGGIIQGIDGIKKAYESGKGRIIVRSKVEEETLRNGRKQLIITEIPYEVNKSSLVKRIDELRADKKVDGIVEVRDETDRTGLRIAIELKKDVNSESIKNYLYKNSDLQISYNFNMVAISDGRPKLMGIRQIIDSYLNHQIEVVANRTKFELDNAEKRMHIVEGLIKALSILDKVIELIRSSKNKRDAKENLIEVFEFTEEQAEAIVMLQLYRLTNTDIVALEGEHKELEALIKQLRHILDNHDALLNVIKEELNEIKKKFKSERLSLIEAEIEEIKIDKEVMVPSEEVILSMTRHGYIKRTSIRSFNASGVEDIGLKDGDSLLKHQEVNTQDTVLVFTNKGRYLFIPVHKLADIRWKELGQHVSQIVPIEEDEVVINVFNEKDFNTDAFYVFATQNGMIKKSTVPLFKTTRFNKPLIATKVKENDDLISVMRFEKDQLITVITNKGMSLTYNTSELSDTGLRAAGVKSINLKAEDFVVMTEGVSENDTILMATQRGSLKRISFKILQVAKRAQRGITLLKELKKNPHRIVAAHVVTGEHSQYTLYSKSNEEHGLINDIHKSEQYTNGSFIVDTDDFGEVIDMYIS
T1 sequence (P0C1S7 whole entry): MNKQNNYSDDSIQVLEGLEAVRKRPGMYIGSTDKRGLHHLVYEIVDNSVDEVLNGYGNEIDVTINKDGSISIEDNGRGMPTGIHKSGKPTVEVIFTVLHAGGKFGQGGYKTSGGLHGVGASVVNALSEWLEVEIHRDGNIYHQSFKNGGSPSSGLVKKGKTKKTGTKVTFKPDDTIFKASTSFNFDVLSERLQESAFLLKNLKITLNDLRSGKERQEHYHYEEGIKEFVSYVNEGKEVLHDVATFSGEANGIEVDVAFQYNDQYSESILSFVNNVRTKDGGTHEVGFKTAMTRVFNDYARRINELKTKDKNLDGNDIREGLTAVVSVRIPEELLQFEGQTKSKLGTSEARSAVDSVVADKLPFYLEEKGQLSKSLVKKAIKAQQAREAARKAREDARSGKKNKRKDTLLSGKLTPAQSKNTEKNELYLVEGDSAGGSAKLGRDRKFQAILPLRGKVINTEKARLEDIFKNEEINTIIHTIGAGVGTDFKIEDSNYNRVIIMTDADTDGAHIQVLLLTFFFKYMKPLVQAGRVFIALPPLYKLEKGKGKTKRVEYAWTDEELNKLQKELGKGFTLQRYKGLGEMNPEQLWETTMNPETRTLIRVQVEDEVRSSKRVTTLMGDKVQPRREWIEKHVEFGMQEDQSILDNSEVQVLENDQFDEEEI
Method: The assay was performed using S. aureus topoisomerase IV […] kit (Inspiralis). Kinetoplast DNA (kDNA) was the substrate for topoisomerase IV.

M. tuberculosis strains = assay: MABA MIC, mycobacterial strains as a group; format: cell-based; details: Mycobacterium tuberculosis, read-out: MIC antimycobacterial (strain not specified)

Compound	MIC [1] [µg/mL]	MIC [2] [µg/mL]	MIC [3] [µg/mL]	MIC [4] [µg/mL]	MIC (S. aureus ATCC 29213) [µg/mL]	MIC (S. aureus ATCC 6538) [µg/mL]	IC50 (PC3 cells; Homo sapiens, PC-3, 72 h) [µM]	SI PC3 (PC3 cells)	IC50 (SW480 cells) [µM]	SI SW480 (SW480 cells)	MIC [5] [µg/mL]	MIC [8] [µg/mL]	IC50 (SW620 cells; Homo sapiens, SW-620, 72 h) [µM]	SI SW620 (SW620 cells)	IC50 (HaCaT cells) [µM]	MIC (S. aureus ATCC 25923) [µg/mL]	MIC [9] [µg/mL]	MIC [10] [µg/mL]	MIC [11] [µg/mL]	MIC (S. aureus NCTC 4163) [µg/mL]	further results
C=CCCCCC(=O)N1CCCC2CN(c3c(F)cc4c(=O)c(C(=O)O)cn(C5CC5)c4c3OC)CC21 (centres unmarked) [Compound 10m, 1-Cyclopropyl-6-fluoro-7-(1-hept-6-enoyl-octahydro-pyrrolo[3,4-b]pyridin-6-yl)-8-methoxy-4-oxo-1,4-dihydro-quinoline-3-carboxylic acid]	2 (≈ 3.91 µM)	4 (≈ 7.82 µM)	16 (≈ 31.3 µM)	2 to 4 (≈ 3.91 to 7.82 µM)	2 (≈ 3.91 µM)	2 (≈ 3.91 µM)	< 5	19.0	5.8 ± 0.8	15.1	4 (≈ 7.82 µM)	4 (≈ 7.82 µM)	6.2 ± 1.1	14.1	87.6 ± 4.5	2 (≈ 3.91 µM)	2 (≈ 3.91 µM)	2 (≈ 3.91 µM)	16 (≈ 31.3 µM)	2 (≈ 3.91 µM)	MIC (M. tuberculosis H37Rv; 2 weeks of treatment): 32 µg/mL (≈ 62.5 µM); IC50 (PC3 cells): 4.6 ± 1.1 µM; MIC ([6]; 2 weeks of treatment): 32 µg/mL (≈ 62.5 µM); MIC [7]: 2 to 8 µg/mL (≈ 3.91 to 15.6 µM); MIC (E. coli ATCC 25922; ATCC25922, 18 h of treatment): 32 µg/mL (≈ 62.5 µM); MIC [12]: 2 µg/mL (≈ 3.91 µM); MIC (P. aeruginosa ATCC 27853): > 512 µg/mL
CC/C=C\C/C=C\C/C=C\C/C=C\C/C=C\C/C=C\CCC(=O)N1CCCC2CN(c3c(F)cc4c(=O)c(C(=O)O)cn(C5CC5)c4c3OC)CC21 (centres unmarked) [Compound 8m, 1-Cyclopropyl-7-{1-(4Z,7Z,10Z,13Z,16Z,19Z)-docosa-4,7,10,13,16,19-hexaenoyl-octahydro-pyrrolo[3,4-b]pyridin-6-yl}-6-fluoro-8-methoxy-4-oxo-1,4-dihydro-quinoline-3-carboxylic acid]	4 (≈ 5.62 µM)	4 (≈ 5.62 µM)	512 (≈ 719 µM)	2 to 4 (≈ 2.81 to 5.62 µM)	4 (≈ 5.62 µM)	2 (≈ 2.81 µM)	5.6 ± 1.9	14.5	6.2 ± 1.3	13.1	4 (≈ 5.62 µM)	4 (≈ 5.62 µM)	9.4 ± 3.7	8.7	81.4 ± 3.2	2 (≈ 2.81 µM)	2 (≈ 2.81 µM)	4 (≈ 5.62 µM)	512 (≈ 719 µM)	2 (≈ 2.81 µM)	MIC (M. tuberculosis H37Rv; 2 weeks of treatment): 8 µg/mL (≈ 11.2 µM); IC50 (S. aureus DNA gyrase): > 89.9 µM; IC50 ([13]; Homo sapiens): 5 to 10 µM; IC50 [13]: 5.6 to 10.4 µM; MIC ([6]; 2 weeks of treatment): 4 µg/mL (≈ 5.62 µM); MIC [7]: 4 µg/mL (≈ 5.62 µM); MIC E. coli ATCC 25922 (E. coli ATCC 25922; 18 h of treatment): 2 to 16 µg/mL; MIC (E. coli ATCC 25922; ATCC25922, 18 h of treatment): 2 µg/mL (≈ 2.81 µM); IC50 [14]: > 89.9 µM; MIC [12]: 4 µg/mL (≈ 5.62 µM); MIC (P. aeruginosa ATCC 27853): > 512 µg/mL
COc1c(N2CC3CCCN(C(=O)/C=C(\C)CCC=C(C)C)C3C2)c(F)cc2c(=O)c(C(=O)O)cn(C3CC3)c12 (centres unmarked) [Compound 3m, 1-Cyclopropyl-7-{1-(2E)-(3,7-dimethyl-octa-2,6-dienoyl)-octahydro-pyrrolo[3,4-b]pyridin-6-yl}-6-fluoro-8-methoxy-4-oxo-1,4-dihydro-quinoline-3-carboxylic acid]	8 (≈ 14.5 µM)	8 (≈ 14.5 µM)	16 (≈ 29 µM)	8 to 32 (≈ 14.5 to 58 µM)	8 (≈ 14.5 µM)	8 (≈ 14.5 µM)	23.5 ± 4.7	3.5	26.7 ± 1.4	3.0	16 (≈ 29 µM)	16 (≈ 29 µM)	38.2 ± 4.1	2.1	81.2 ± 2.6	8 (≈ 14.5 µM)	8 (≈ 14.5 µM)	8 (≈ 14.5 µM)	8 (≈ 14.5 µM)	8 (≈ 14.5 µM)	MIC (M. tuberculosis strains): ≥ 128 µg/mL; MIC (M. tuberculosis H37Rv): 128 µg/mL (≈ 232 µM); IC50 (S. aureus DNA gyrase): > 116 µM; MIC [6]: 128 µg/mL (≈ 232 µM); MIC (E. coli ATCC 25922; ATCC25922, 18 h): 128 µg/mL (≈ 232 µM); IC50 [14]: > 116 µM; MIC [12]: 16 µg/mL (≈ 29 µM); MIC (P. aeruginosa ATCC 27853): > 64 µg/mL
C/C=C/C=C/C(=O)N1CCCC2CN(c3c(F)cc4c(=O)c(C(=O)O)cn(C5CC5)c4c3OC)CC21 (centres unmarked) [Compound 2m, 1-Cyclopropyl-6-fluoro-7-{1-(2E,4E)-hexa-2,4-dienoyl-octahydro-pyrrolo[3,4-b]pyridin-6-yl}-8-methoxy-4-oxo-1,4-dihydro-quinoline-3-carboxylic acid]	0.5 (≈ 1.01 µM)	1 (≈ 2.02 µM)	32 (≈ 64.6 µM)	0.5 to 2 (≈ 1.01 to 4.04 µM)	1 (≈ 2.02 µM)	1 (≈ 2.02 µM)	< 5	36.7	6.3 ± 1.2	15.7	2 (≈ 4.04 µM)	2 (≈ 4.04 µM)	< 5	25.4	99.1 ± 1.8	1 (≈ 2.02 µM)	1 (≈ 2.02 µM)	1 (≈ 2.02 µM)	32 (≈ 64.6 µM)	1 (≈ 2.02 µM)	MIC (M. tuberculosis H37Rv; 2 weeks of treatment): 32 µg/mL (≈ 64.6 µM); IC50 (S. aureus DNA gyrase): > 129 µM; IC50 (PC3 cells): 2.7 ± 1.1 µM; MIC ([6]; 2 weeks of treatment): 32 µg/mL (≈ 64.6 µM); MIC ([7]; 18 h): 0.5 to 1 µg/mL (≈ 1.01 to 2.02 µM); IC50 (SW620 cells): 3.9 ± 1.1 µM; MIC (E. coli ATCC 25922; ATCC25922, 18 h of treatment): 64 µg/mL (≈ 129 µM); IC50 [14]: > 129 µM; MIC [12]: 1 µg/mL (≈ 2.02 µM); MIC (P. aeruginosa ATCC 27853): > 512 µg/mL
CCCCC/C=C\C/C=C\C/C=C\C/C=C\CCCC(=O)N1CCCC2CN(c3c(F)cc4c(=O)c(C(=O)O)cn(C5CC5)c4c3OC)CC21 (centres unmarked) [Compound 13m, 1-Cyclopropyl-6-fluoro-7-{1-(5Z,8Z,11Z,14Z)-icosa-5,8,11,14-tetraenoyl-octahydro-pyrrolo[3,4-b]pyridin-6-yl}-8-methoxy-4-oxo-1,4-dihydro-quinoline-3-carboxylic acid]	4 (≈ 5.81 µM)	8 (≈ 11.6 µM)	256 (≈ 372 µM)	8 to 32 (≈ 11.6 to 46.5 µM)	16 (≈ 23.3 µM)	16 (≈ 23.3 µM)	28.3 ± 2.8	3.3	32.3 ± 4.1	2.9	8 (≈ 11.6 µM)	16 (≈ 23.3 µM)	39.4 ± 4.1	2.4	93.3 ± 2.8	16 (≈ 23.3 µM)	16 (≈ 23.3 µM)	4 (≈ 5.81 µM)	512 (≈ 744 µM)	16 (≈ 23.3 µM)	MIC (M. tuberculosis H37Rv; 2 weeks of treatment): 4 µg/mL (≈ 5.81 µM); MIC ([6]; 2 weeks of treatment): 4 µg/mL (≈ 5.81 µM); MIC [7]: 2 to 8 µg/mL (≈ 2.91 to 11.6 µM); MIC E. coli ATCC 25922 (E. coli ATCC 25922; 18 h of treatment): 2 to 16 µg/mL; MIC (E. coli ATCC 25922; ATCC25922, 18 h of treatment): 16 µg/mL (≈ 23.3 µM); MIC [12]: 8 µg/mL (≈ 11.6 µM); MIC (P. aeruginosa ATCC 27853): > 512 µg/mL
